The target of the assay is VLA-4-IgG chimeric protein (Homo sapiens, UniProt P05556+P13612). Description: Inhibition of binding between CS-1 peptide and VLA-4-IgG chimeric protein. As to the method: The adhesion-inhibition activity of the compound of the present invention against VLA-4 may be examined by using an adhesion assay system in which the adhesion between VLA-4-expressing cells such as Ramos cells and Jurkat cells, and fibronectin or a fragment thereof, e.g., a peptide containing CS-1 sequence (Gly Pro Glu Ile Leu Asp Val Pro Ser Thr) (hereinafter referred to as "CS-1 peptide") immobilized on an immunoplate is measured. Alternatively, a binding assay system in which the binding of the VLA-4 protein to the fibronectin or a fragment thereof such as CS-1 peptide immobilized on an immunoplate is measured may be employed. In the present invention, the inhibition assay of the compound is preferably measured by a binding assay system which measures the binding between a chimeric protein of VLA-4 and immunoglobulin (VLA-4-IgG chimeric protein) and CS-1 peptide (Japanese patent application No. H9-234544), although the method of measuring the inhibition activity is not restricted to this method. The term "VLA-4-IgG chimeric protein" herein means the heterodimer composite molecule in which a chimeric protein between α4 of VLA-4 and immunoglobulin (hereinafter referred to as "VLAα4·IgG chimeric protein), and a chimeric protein between β1 of VLA-4 and immunoglobulin (hereinafter referred to as "VLAβ1·IgG chimeric protein) are associated. As the immunoglobulin, although heavy chain or light chain of IgG, IgM or the like may be employed, in the present invention, IgG1 heavy chain is used. When testing the inhibition activity of the compound, it is preferred to preliminarily mix the VLA-4-IgG chimeric protein and the test compound.
Effects of Compounds for Inhibition of Binding Between CS-1 Peptide and VLA-4-IgG
A conjugate between a peptide (Gys Leu His Gly Pro Glu Ile Leu Asp Val Pro Ser Thr) containing CS-1 sequence and rabbit IgG (Sigma) was prepared by the reported method (Humphries, M.J. et al. J. Biol.Chem., 262, 6886-6892 (1987)). The obtained conjugate was diluted with phosphate buffer (hereinafter referred to as "PBS(-)", NISSUI) and the resulting solution was placed in wells of a 96-well immunoplate (NUNC) in an amount of 100 µl/well, followed by leaving the solution to stand at 4°C for 16 hours to immobilize the conjugate.
Then each well was washed twice with PBS(-), and a PBS solution containing 1% BSA heat-treated at 80°C for 10 minutes was placed in each well in an amount of 300 µl/well. The immunoplate was left to stand at 4°C for 3 hours, and then the solution in each well was removed by aspiration.
After preliminarily allowing each compound to react with VLA-4-IgG chimeric protein (100 µl) at room temperature for 20 minutes, the resulting solution was allowed to react with CS-1 peptide in each well at 30°C for 3 hours. Thereafter, non-bound VLA-4-IgG chimeric protein was removed by aspiration and each well was washed twice with 0.1% BSA-containing TBS buffer (150 mM NaCl,25 mM Tris-HCI, 1 mM MnCl2 pH 7.4). To the bound VLA-4-IgG chimeric protein, biotin-labeled anti-human IgG antibody (Vector) as an primary antibody was added, and then avidin-labeled horse radish peroxidase (Sigma) as a secondary antibody was added, and the reaction was allowed to occur. After the reaction, o-phenylenediamine as a substrate was added to color the solution, and the absorbance at 490 nm was measured. From the absorbance, the binding-inhibition activity of each test compound was determined.

The mark [1] stands for this setting: binding of VLA-4-IgG chimeric protein to immobilized CS-1 peptide, compound preincubated 20 minutes, read-out: Inhibition Activity(IC50 : nM).

Like-named read-outs stand apart in the source and are kept apart here.

By IC50 is commonly meant the concentration that inhibits the measured activity by half.

Sequence of VLA-4-IgG chimeric protein (P13612 with tags, fused parts or gaps limits assumed): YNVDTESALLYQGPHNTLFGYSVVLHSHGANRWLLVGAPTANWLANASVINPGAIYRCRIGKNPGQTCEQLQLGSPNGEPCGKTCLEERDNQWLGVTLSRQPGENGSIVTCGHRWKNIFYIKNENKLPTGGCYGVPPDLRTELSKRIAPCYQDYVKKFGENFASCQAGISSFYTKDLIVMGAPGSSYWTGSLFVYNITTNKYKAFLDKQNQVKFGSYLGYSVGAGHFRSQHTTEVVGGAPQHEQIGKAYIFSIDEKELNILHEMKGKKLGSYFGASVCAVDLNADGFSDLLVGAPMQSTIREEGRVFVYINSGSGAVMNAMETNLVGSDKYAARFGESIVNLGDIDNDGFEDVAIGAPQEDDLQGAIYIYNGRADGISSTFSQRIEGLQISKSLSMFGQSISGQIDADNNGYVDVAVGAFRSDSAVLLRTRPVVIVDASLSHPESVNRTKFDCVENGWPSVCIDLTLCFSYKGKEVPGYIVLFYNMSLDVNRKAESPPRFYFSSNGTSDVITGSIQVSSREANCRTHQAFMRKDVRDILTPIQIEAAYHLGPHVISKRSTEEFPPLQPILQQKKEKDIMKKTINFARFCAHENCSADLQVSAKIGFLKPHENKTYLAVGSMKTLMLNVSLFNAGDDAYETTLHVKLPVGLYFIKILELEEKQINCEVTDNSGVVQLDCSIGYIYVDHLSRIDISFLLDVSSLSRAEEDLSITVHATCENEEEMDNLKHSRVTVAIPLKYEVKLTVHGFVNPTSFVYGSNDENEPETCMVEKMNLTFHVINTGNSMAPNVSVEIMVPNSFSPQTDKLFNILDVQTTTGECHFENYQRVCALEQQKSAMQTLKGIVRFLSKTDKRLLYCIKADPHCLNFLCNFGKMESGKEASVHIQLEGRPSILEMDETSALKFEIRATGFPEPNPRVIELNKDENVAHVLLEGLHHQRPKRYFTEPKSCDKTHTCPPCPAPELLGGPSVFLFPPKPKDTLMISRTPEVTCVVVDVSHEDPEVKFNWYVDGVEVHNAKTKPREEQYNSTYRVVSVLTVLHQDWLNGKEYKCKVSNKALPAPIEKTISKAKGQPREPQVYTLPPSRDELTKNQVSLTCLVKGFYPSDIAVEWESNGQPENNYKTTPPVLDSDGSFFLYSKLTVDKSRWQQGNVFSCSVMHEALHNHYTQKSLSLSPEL
Sequence of VLA-4-IgG chimeric protein (P05556 with tags, fused parts or gaps limits assumed): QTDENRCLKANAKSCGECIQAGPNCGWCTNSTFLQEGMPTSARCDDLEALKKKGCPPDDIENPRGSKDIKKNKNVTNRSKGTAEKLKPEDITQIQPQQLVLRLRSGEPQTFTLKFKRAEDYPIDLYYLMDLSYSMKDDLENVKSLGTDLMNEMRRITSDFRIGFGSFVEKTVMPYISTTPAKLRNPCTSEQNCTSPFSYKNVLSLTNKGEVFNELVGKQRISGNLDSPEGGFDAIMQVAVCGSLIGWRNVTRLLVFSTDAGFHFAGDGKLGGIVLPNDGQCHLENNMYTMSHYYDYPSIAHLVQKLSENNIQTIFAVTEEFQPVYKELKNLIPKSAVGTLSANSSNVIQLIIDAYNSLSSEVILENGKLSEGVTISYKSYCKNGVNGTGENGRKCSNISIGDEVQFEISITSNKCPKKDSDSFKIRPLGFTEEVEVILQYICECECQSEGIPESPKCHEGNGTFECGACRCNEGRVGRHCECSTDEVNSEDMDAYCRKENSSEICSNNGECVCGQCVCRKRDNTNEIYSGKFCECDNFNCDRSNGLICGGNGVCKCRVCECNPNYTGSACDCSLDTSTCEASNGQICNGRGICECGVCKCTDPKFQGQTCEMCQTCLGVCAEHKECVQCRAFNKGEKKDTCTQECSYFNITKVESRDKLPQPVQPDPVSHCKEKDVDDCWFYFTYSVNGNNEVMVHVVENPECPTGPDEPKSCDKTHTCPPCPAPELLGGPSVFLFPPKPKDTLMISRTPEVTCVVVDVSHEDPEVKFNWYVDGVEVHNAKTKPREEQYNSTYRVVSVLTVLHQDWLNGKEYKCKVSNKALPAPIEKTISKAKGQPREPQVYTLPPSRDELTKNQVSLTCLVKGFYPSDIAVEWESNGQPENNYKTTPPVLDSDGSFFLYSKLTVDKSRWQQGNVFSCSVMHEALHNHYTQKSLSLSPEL

In the case of “3-((2(R)-((1-acetyl-3(R,S)-(4-hydroxyphenyl)pyrrolidin-2(R,S)-yl)carbonylamino)-2(R)-carbonylethyl)disulfanyl)-2(R)-(3,3-dimethylbutanoylamino)propionic acid [Example 74]”, the IC50 under setting [1] is 120 nM. With `CC(C)CC(C(=O)NC(Cc1ccc(CCC(=O)O)cc1)C(=O)O)c1ccc(O)cc1` (single isomer, unassigned) [Example 120, 3-(4-(2-carboxyethyl)phenyl)-2-(2-(4-hydroxyphenyl)-4-methylpentanoylamino)propionic acid], the IC50 under setting [1] stood at 160 nM. As for `CC(C)CC(C(=O)N[C@@H](CCSC[C@H](NC(=O)C(CC(C)C)c1ccc(O)cc1)C(=O)O)C(=O)O)c1ccc(O)cc1` (stereo partly drawn) [Example 8, 4-(2(R)-carboxy-2(R)-(2(R,S)-(4-hydroxyphenyl)-4-methylpentanoylamino)ethylthio)-2(S)-(2(R,S)-(4-hydroxyphenyl)-4-methylpentanoylamino) butyric acid], the IC50 was 200 nM. Compound `CC(C)CC(C(=O)N[C@@H](CCSC[C@H](NC(=O)CC(C)(C)C)C(=O)O)C(=O)O)c1ccc(O)cc1` (stereo partly drawn) [Example 14, 4-(2(R)-carboxy-2(R)-(3,3-dimethylbutanoylamino)ethylthio)-2(S)-(2(R,S)-(4-hydroxyphenyl)-4-methylpentanoylamino) butyric acid] had a concentration for half-maximal inhibition (IC50) of 500 nM.

`CC(C)CC(C(=O)NCCCSC[C@H](NC(=O)CC(C)(C)C)C(=O)O)c1ccc(O)cc1` (some centres unmarked) [Example 19]: the concentration for half-maximal inhibition (IC50) is 500 nM.

In turn, `CC(C)CC(C(=O)N[C@@H](CSSC[C@H](NC(=O)CC(C)(C)C)C(=O)O)C(=O)O)c1ccc(O)cc1` (stereo partly drawn) [Example 62, 3-((2(R)-carboxy-2(R)-(2(R,S)-(4-hydroxyphenyl)-4-methylpentanoylamino)ethyl)disulfanyl)-2(R)-(3,3-dimethylbutanoylamino)propionic acid] came in with an IC50 of 90 nM. Consider `CC(C)C[C@H](OCc1ccccc1)C(=O)N[C@@H](Cc1ccc(OCC(C)(C)C)cc1)C(=O)O` [Example 102, 2(S)-(4-methyl-2(S)-(phenylmethoxy)pentanoylamino)-3-(4-(2,2-dimethylpropoxy)phenyl)propionic acid], for which, under setting [1], the half-maximal inhibitory concentration (IC50) stood at 500 nM. As to `CC(C)CC(NC(=O)CCc1ccc(CC(NC(=O)CC(C)(C)C)C(=O)O)cc1)c1ccc(O)cc1` (centres unmarked) [Example 131, 3-(4-(2-(N-(1-(4-hydroxyphenyl)-3-methylbutyl)carbamoyl)ethyl)phenyl)-2-(3,3-dimethylbutanoylamino)propionic acid], the half-maximal inhibitory concentration (IC50) under setting [1] came out at 1800 nM.

Regarding `O=C(NC(CCCCC(NC(=O)c1c(Cl)cccc1Cl)C(=O)O)C(=O)O)c1c(Cl)cccc1Cl` (centres unmarked) [Example 154, 2,7-bis((2,6-dichlorophenyl)carbonylamino)octanedioic acid], the half-maximal inhibitory concentration (IC50) under setting [1] was determined as 430 nM.

In turn, `O=C(O)CCc1ccc(C[C@H](NC(=O)c2c(Cl)cccc2Cl)C(=O)O)cc1` [Example 161, 2(S)-2-((2,6-dichlorophenyl)carbonylamino)-3-(4-(2-carbaxyethyl)phenyl)propionic acid] showed an IC50 of 64 nM. Regarding `CC(C)C[C@H](NC(=O)Cc1ccc(NC(=O)Nc2ccccc2)cc1)C(=O)N[C@@H](Cc1ccc(CCC(=O)O)cc1)C(=O)O` [Example 171, (2S)-2-((2S)-4-methyl-2-(2-(4-((phenylamino)carbonylamino)phenyl)acetylamino)pentanoylamino)-3-(4-(2-carboxyethyl)phenyl)propionic acid], the 50% inhibitory concentration (IC50) under setting [1] amounted to 780 nM. As for `CC(C)C[C@H](NC(=O)Cc1ccc(NC(=O)Nc2ccccc2)cc1)C(=O)N[C@@H](CCSC[C@H](NC(=O)CC(C)(C)C)C(=O)O)C(=O)O` [Example 176, 4-((2R)-2-(3,3-dimethylbutanoylamino)-2-carboxyethylthio)-(2S)-2-((2S)-4-methyl-2-(2-(4-((phenylamino)carbonylamino)phenyl)acetylamino)pentanoylamino)butyric acid], the 50% inhibitory concentration (IC50) under setting [1] stood at 13 nM. With `O=C(N[C@@H](CCSC[C@H](NC(=O)c1c(Cl)cccc1Cl)C(=O)O)C(=O)O)c1c(Cl)cccc1Cl` [Example 180, 4-((2R)-2-((2,6-dichlorophenyl)carbonylamino)-2-carboxyethylthio) (2S)-2-((2,6-dichlorophenyl)carbonylamino)butyric acid], under “read-out: Inhibition Activity(IC50 : nM), binding of VLA-4-IgG chimeric protein to immobilized CS-1 peptide, compound preincubated 20 minutes”, the 50% inhibitory concentration (IC50) was 38 nM. For the compound “(2R)-3-(((2S)-1-(2-cyclohexylacetyl)pyrrolidin-2-yl)methylthio)-2-(3,3-dimethylbutanoylamino)propionic acid [Example 193]”, the IC50 under setting [1] is 2200 nM.

The values are drawn from patent EP1209147A1, “CARBOXYLIC ACID DERIVATIVES AND ADHESION MOLECULE INHIBITORS CONTAINING THE SAME AS THE ACTIVE INGREDIENT” (TORAY INDUSTRIES, INC., priority 1999, dated 2001).
